Assays:
[1] = Cataract formation after administration of fluoxetine preparations to the eye; assay type: in vivo
[2] = test system: cleavage of pro-caspase-1 into active caspase-1 (NLRP3 inflammasome activation); assay: Western blot of Alu RNA-induced caspase-1 cleavage (inflammasome activation) in BMDMs; assay type: cell-based; conditions: mouse BMDMs, 200 μM compound for 1 hour, then Alu RNA transfection overnight, FIG. 1
Description: (§1) Cell Stimulation. Bone marrow derived macrophages (BMDMs) were treated with 200 μM Zidovudine (AZT), GAZT, AMT, or LSO for 1 hour. Cells were transfected with Alu RNA overnight using Lipofectamine 3000 (Invitrogen) according to manufacturer's instructions.
Western blotting. Serum free media (1 mL) from stimulated BMDMs was transferred into fresh tubes and centrifuged for 10 min at 12,000 rpm at 4° C. 15 μl of 10% sodium deoxycholate was added to the supernatants, vortexed and kept on ice. 72 μl Trichloroacetic acid (Sigma-Aldrich, St. Louis,. Mo., United States of America) was subsequently added and the tubes were kept on ice overnight. After centrifugation for 30 min at 12,000 rpm at 4° C., the pellet was washed twice with 500 μl ice-cold acetone. The pellet was dried and boiled with LDS Sample Buffer and β-mercaptoethanol (Sigma-Aldrich). The precipitated protein was analyzed by immunoblotting.
The ability of NRTI and NRTI metabolites to inhibit inflammasome activation was tested by western blot.

IL-1β release = assay: ELISA of Alu RNA-induced IL-1β release from BMDMs; assay type: cell-based; conditions: mouse BMDMs, 200 μM compound for 1 hour, then Alu RNA transfection overnight, FIG. 2
Description: as §1
Enzyme-linked immunosorbent assay (ELISA). 1.2 million cells/mL were seeded per well in 6-well cell culture dishes overnight and stimulated as mentioned above. Secreted mouse IL-1β in the medium were detected by ELISA (R&D Systems, Inc., Minneapolis, Minn., United States of America) according to the manufacturer's instructions.
The ability of NRTI and NRTI metabolites to inhibit IL-1β release was tested by ELISA.

[3] = test system: laser-induced choroidal neovascularization (CNV); assay: Laser-induced choroidal neovascularization, mouse model of neovascular (wet) macular degeneration; assay type: in vivo; conditions: wild-type C57BL/6J mice, CNV lesion volume 7 days after laser; FIGS. 3A, 3B, 4
Description: (§2) Animals. Both male and female wild-type (WT) C57BL/6J mice (The Jackson Laboratory, Bar Harbor, Me., United States of America) between 6-10 weeks of age were used in this study. For all procedures, anesthesia was achieved by intraperitoneal injection of 100 mg/kg ketamine hydrochloride (Fort Dodge Animal Health, Overland Park, Kans., United States of America) and 10 mg/kg xylazine (Phoenix Scientific, Inc., St. Joseph, Mo., United States of America), and pupils were dilated with topical 1% tropicamide and 2.5% phenylephrine hydrochloride (Alcon Laboratories, Inc., Ft. Worth, Tex., United States of America). All animal experiments were approved by the Institutional Animal Care and Use Committees of the University of Virginia (Charlottesville, Va., United States of America) and was performed in accordance with the Statement for the Use of Animals in Ophthalmic and Visual Research of the Association for Research in Vision and Ophthalmology (Washington, D.C., United States of America).
(§3) Subretinal and intravitreous injections. Subretinal injections (SRI) (1 μl) and intravitreous injections (0.5 μl) in mice were performed using a 35-gauge needle (Ito Co.). In vitro transcribed Alu RNA (300 ng/μl) was injected into the subretinal space via SRI. 1 mM of 3′-Azido-3′-deoxythymidine β-D-glucuronide (GAZT; Cayman Chemical, Ann Arbor, Mich., United States of America), Lamivudine (R)-sulfoxide (LSO; Toronto Research Chemicals, Toronto, Canada) 2 mM of 3′-Amino-3′-deoxythymidine (AMT; Toronto Research Chemicals), or PBS was injected into the vitreous humor. Kamuvudines including but not limited to K-8 (2-Et-AZT) and K-9 (3-Me-3TC, a.k.a. 3-Me-lamivudine) were previously described (see U.S. Pat. No. 10,294,220, which is incorporated herein by reference in its entirety).
Choroidal neovascularization. Experimental choroidal neovascularization (CNV) was induced via laser photocoagulation (OcuLight GL, IRIDEX Corp., Mountain View, Calif., United States of America; 180 mW, 100 ms, 75 μm) in both eyes. The volume of the CNV lesions was measured after 7 days using a scanning laser confocal microscope (A1R Nikon confocal microscope system, Nikon USA, Melville, N.Y., United States of America) after 0.7% FITC-isolectin B4 staining (Vector Laboratories, Burlingame, Calif., United States of America, USA). The volume of each lesion was calculated using FIJI software (Schindelin et al., 2012).
The ability of NRTI, NRTI metabolites, and NRTI analogs to inhibit neovascular (wet) macular degeneration in a mouse model was tested. The results are shown in FIGS. 3A and 3B and in FIG. 4.

[4] = test system: retinal pigmented epithelium (RPE); assay: Alu RNA-induced RPE degeneration, mouse model of atrophic (dry) macular degeneration; assay type: in vivo; conditions: mice, subretinal Alu RNA, intravitreous 1 mM GAZT or LSO, 2 mM AMT; ZO-1 RPE flat mounts 7 days after injection; FIG. 5
Description: as §2, §3

subretinal fibrosis = assay: Subretinal fibrosis after laser injury / subretinal Alu RNA in mice; assay type: in vivo, mouse; conditions: wild-type mice, intravitreous injection, laser injury with subretinal Alu RNA, collagen type 1 staining after 7 days, FIGS. 6B
Description: as §2
Subretinal and intravitreous injections. Subretinal injections (SRI) (1 μl) and intravitreous injections (0.5 μl) in mice were performed using a 35-gauge needle (Ito Co.). […]
Subretinal fibrosis. […] After mounting in slides, the RPE flat mounts were imaged using a scanning laser confocal microscope (A1R Nikon confocal microscope system, Nikon USA) and the volume of each lesion was calculated by FIJI software. […]

Structure (SMILES)	cataract formation, share of subjects [1]	Alu RNA-induced cleavage of pro-caspase-1 (50 kDa band) into active caspase-1 (20 kDa band) [2]	Alu RNA-induced IL-1β release (IL-1β release)	laser-induced choroidal neovascularization (CNV) volume [3]	Alu RNA-induced RPE degeneration [4]	subretinal fibrosis volume (subretinal fibrosis)
CNCCC(Oc1ccc(C(F)(F)F)cc1)c1ccccc1 (racemic) [racemic fluoxetine, fluoxetine]	up to 50%					
Cc1cn([C@H]2C[C@H](N)[C@@H](CO)O2)c(=O)[nH]c1=O [AMT, 3′-Amino-3′-deoxythymidine]		inhibited	inhibited	inhibited	inhibited	
Cc1cn([C@H]2C[C@H](N=[N+]=[N-])[C@@H](CO)O2)c(=O)[nH]c1=O [AZT, 1-[(2R,4S,5S)-4-Azido-5-(hydroxymethyl)oxolan-2-yl]-5-methylpyrimidine-2,4-dione, reference compound]		inhibited	inhibited	inhibited		reduced subretinal fibrosis volume
Cc1cn([C@H]2C[C@H](N=[N+]=[N-])[C@@H](CO[C@@H]3O[C@H](C(=O)O)[C@@H](O)[C@H](O)[C@H]3O)O2)c(=O)[nH]c1=O [GAZT, 3′-Azido-3′-deoxythymidine β-D-glucuronide]		inhibited	inhibited	inhibited	inhibited	
CCOC[C@H]1O[C@@H](n2cc(C)c(=O)n(CC)c2=O)C[C@@H]1N=[N+]=[N-] [Kamuvudine K-8, 1-[(2R,4S,5S)-4-azide-5-(ethoxymethyl)oxolan-2-yl)-3-ethyl-5-methyl-1,2,3,4-etrahydropyrimidine-2,4-dione]				inhibited		reduced the volume of subretinal fibrosis
CCOCC1OC(n2ccc(N(CC)CC)nc2=O)CS1 (stereo not drawn) [Kamuvudine K-9]				inhibited		
Nc1ccn([C@@H]2C[S@@+]([O-])[C@H](CO)O2)c(=O)n1 [LSO, Lamivudine (R)-sulfoxide]			inhibited		inhibited	

— patent US20230172962A1, “NRTIS, NRTI METABOLITES, AND NRTI ANALOGS FOR MACULAR DEGENERATION AND VIRAL INFECTIONS” (priority 2020, published 2023)
